Measured values from patent US8247211B2, “Glycopeptide antibiotics” (American Cyanamid Company, priority 2001, dated 2012).
Converted amounts (≈) assume the structure as drawn.

Assays:
Test in all cases: In vitro antibacterial evaluation: minimum inhibitory concentration (MIC), broth dilution method
Assay type in all cases: cell-based
Escherichia coli = test system: Escherichia coli
Outline: (§1)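 Following NCCLS approved standard M7-A2, compounds are serially diluted from 64 to 0.06 μg/mL in Muller-Hinton II […] and inoculated at 5×10^5 CFU/mL; the MIC is the minimum concentration at which growth is inhibited.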

Staphylococcus sp. = settings: broth dilution, 18 hours at 35° C.
Outline: as §1

Streptococcus sp. = test system: Streptococcus sp.
Outline: as §1

Enterococcus sp. = test system: Enterococcus sp.
Outline: as §1

[1] = broth dilution, inoculum 5×10^5 CFU/mL, 18 hours at 35° C.

Structure (SMILES): CC(c1ccccc1)C1NC(=O)CNC(=O)C(CO)NC(=O)C(C(O)C2CNC(=N)N2C2OC(CO)C(O)C(O)C2O)NC(=O)C(C(O)C2CNC(=N)N2)NC(=O)C(Cc2ccc(OC3OC(CO)C(OC4OC5COC(c6ccc(-c7ccsc7)cc6)OC5C(O)C4O)C(O)C3O)cc2)NC1=O (stereo not drawn) [Example 164, Cyclo[glycyl-β-methylphenylalanyl-O-[4-O-[4,6-O-[4-(3-thienyl)benzylidene]hexopyranosyl]-hexopyranosyl]tyrosyl-3-(2-iminoimidazolidin-4-yl)seryl-3-(3-hexopyranosyl-2-iminoimidazolidin-4-yl)serylseryl]]
- MIC Escherichia coli (ATCC 25922) (Escherichia coli; strain ATCC 25922): >64 µg/mL
- MIC Escherichia coli (GC 4559) (Escherichia coli; strain GC 4559): 64 µg/mL (≈ 43.7 µM)
- MIC Escherichi coli (GC 4560) (Escherichia coli; strain GC 4560): 4 µg/mL (≈ 2.73 µM)
- MIC Coagulase Negative Staphylococcus (GC 4547) (Staphylococcus sp.; 5×10^5 CFU/mL): 4 µg/mL (≈ 2.73 µM)
- MIC Coagulase Negative Staphylococcus (GC 4548) (Staphylococcus sp.; 5×10^5 CFU/mL): 1 µg/mL (≈ 0.682 µM)
- MIC Coagulase Negative Staphylococcus (GC 4549) (Staphylococcus sp.; 5×10^5 CFU/mL): 0.5 µg/mL (≈ 0.341 µM)
- MIC Coagulase Negative Staphylococcus (GC 4551) (Staphylococcus sp.; 5×10^5 CFU/mL): 4 µg/mL (≈ 2.73 µM)
- MIC Coagulase Negative Staphylococcus (GC 6257) (Staphylococcus sp.; 5×10^5 CFU/mL): 1 µg/mL (≈ 0.682 µM)
- MIC Staphylococcus aureus (ATCC 29213) (Staphylococcus sp.; 5×10^5 CFU/mL): 8 µg/mL (≈ 5.46 µM)
- MIC Staphylococcus aureus (GC 1131) (Staphylococcus sp.; 5×10^5 CFU/mL): 4 µg/mL (≈ 2.73 µM)
- MIC Staphylococcus aureus (GC 3051) (Staphylococcus sp.; 5×10^5 CFU/mL): 16 µg/mL (≈ 10.9 µM)
- MIC Staphylococcus aureus (GC 3053) (Staphylococcus sp.; 5×10^5 CFU/mL): 8 µg/mL (≈ 5.46 µM)
- MIC Staphylococcus aureus (GC 4541) (Staphylococcus sp.; 5×10^5 CFU/mL): 8 µg/mL (≈ 5.46 µM)
- MIC Staphylococcus aureus (GC 4542) (Staphylococcus sp.; 5×10^5 CFU/mL): 16 µg/mL (≈ 10.9 µM)
- MIC Staphylococcus aureus (GC 4544) (Staphylococcus sp.; 5×10^5 CFU/mL): 8 µg/mL (≈ 5.46 µM)
- MIC Staphylococcus aureus (GC 4545) (Staphylococcus sp.; 5×10^5 CFU/mL): 4 µg/mL (≈ 2.73 µM)
- MIC Staphylococcus aureus-SMITH (GC 4543) (Staphylococcus sp.; 5×10^5 CFU/mL): 4 µg/mL (≈ 2.73 µM)
- MIC Staphylococcus haemolyticus (GC 4546) (Staphylococcus sp.; 5×10^5 CFU/mL): 4 µg/mL (≈ 2.73 µM)
- MIC Staphylococcus aureus (ATCC 29213) (Staphylococcus sp.; strain ATCC 29213): 8 µg/mL (≈ 5.46 µM)
- MIC Staphylococcus aureus (GC 1131) (Staphylococcus sp.; strain GC 1131): 4 µg/mL (≈ 2.73 µM)
- MIC Staphylococcus aureus (GC 3051) (Staphylococcus sp.; strain GC 3051): 16 µg/mL (≈ 10.9 µM)
- MIC Staphylococcus aureus (GC 3053) (Staphylococcus sp.; strain GC 3053): 8 µg/mL (≈ 5.46 µM)
- MIC Staphylococcus aureus (GC 4541) (Staphylococcus sp.; strain GC 4541): 8 µg/mL (≈ 5.46 µM)
- MIC Staphylococcus aureus (GC 4542) (Staphylococcus sp.; strain GC 4542): 16 µg/mL (≈ 10.9 µM)
- MIC Staphylococcus aureus-SMITH (GC 4543) (Staphylococcus sp.; strain GC 4543): 4 µg/mL (≈ 2.73 µM)
- MIC Staphylococcus aureus (GC 4544) (Staphylococcus sp.; strain GC 4544): 8 µg/mL (≈ 5.46 µM)
- MIC Staphylococcus aureus (GC 4545) (Staphylococcus sp.; strain GC 4545): 4 µg/mL (≈ 2.73 µM)
- MIC Staphylococcus haemolyticus (GC 4546) (Staphylococcus sp.; strain GC 4546): 4 µg/mL (≈ 2.73 µM)
- MIC Coagulase Negative Staphylococcus (GC 4547) (Staphylococcus sp.; strain GC 4547): 4 µg/mL (≈ 2.73 µM)
- MIC Coagulase Negative Staphylococcus (GC 4548) (Staphylococcus sp.; strain GC 4548): 1 µg/mL (≈ 0.682 µM)
- MIC Coagulase Negative Staphylococcus (GC 4549) (Staphylococcus sp.; strain GC 4549): 0.5 µg/mL (≈ 0.341 µM)
- MIC Coagulase Negative Staphylococcus (GC 4551) (Staphylococcus sp.; strain GC 4551): 4 µg/mL (≈ 2.73 µM)
- MIC Coagulase Negative Staphylococcus (GC 6257) (Staphylococcus sp.; strain GC 6257): 1 µg/mL (≈ 0.682 µM)
- MIC Streptococcus agalactiae (GC 4564) (Streptococcus sp.; [1]): 0.12 µg/mL (≈ 0.0819 µM)
- MIC Streptococcus pneumoniae (ATCC 6301) (Streptococcus sp.; [1]): <0.06 µg/mL
- MIC Streptococcus pneumoniae (GC 1894) (Streptococcus sp.; [1]): <0.06 µg/mL
- MIC Streptococcus pneumoniae (GC 4565) (Streptococcus sp.; [1]): <0.06 µg/mL
- MIC Streptococcus pyogenes (GC 4563) (Streptococcus sp.; [1]): 0.12 µg/mL (≈ 0.0819 µM)
- MIC Streptococcus pneumoniae (ATCC 6301) (Streptococcus sp.; strain ATCC 6301): <0.06 µg/mL
- MIC Streptococcus pneumoniae (GC 1894) (Streptococcus sp.; strain GC 1894): <0.06 µg/mL
- MIC Streptococcus pyogenes (GC 4563) (Streptococcus sp.; strain GC 4563): 0.12 µg/mL (≈ 0.0819 µM)
- MIC Streptococcus agalactiae (GC 4564) (Streptococcus sp.; strain GC 4564): 0.12 µg/mL (≈ 0.0819 µM)
- MIC Streptococcus pneumoniae (GC 4565) (Streptococcus sp.; strain GC 4565): <0.06 µg/mL
- MIC Enterococcus avium (GC 4558) (Enterococcus sp.; [1]): 8 µg/mL (≈ 5.46 µM)
- MIC Enterococcus faecalis (ATCC 29212) (Enterococcus sp.; [1]): 8 µg/mL (≈ 5.46 µM)
- MIC Enterococcus faecalis (GC 2242) (Enterococcus sp.; [1]): 4 µg/mL (≈ 2.73 µM)
- MIC Enterococcus faecalis (GC 2691) (Enterococcus sp.; [1]): 8 µg/mL (≈ 5.46 µM)
- MIC Enterococcus faecalis (GC 3059) (Enterococcus sp.; [1]): 8 µg/mL (≈ 5.46 µM)
- MIC Enterococcus faecalis (GC 4552) (Enterococcus sp.; [1]): 8 µg/mL (≈ 5.46 µM)
- MIC Enterococcus faecalis (GC 4553) (Enterococcus sp.; [1]): 8 µg/mL (≈ 5.46 µM)
- MIC Enterococcus faecalis (GC 4554) (Enterococcus sp.; [1]): 16 µg/mL (≈ 10.9 µM)
- MIC Enterococcus faecalis (GC 6189) (Enterococcus sp.; [1]): 4 µg/mL (≈ 2.73 µM)
- MIC Enterococcus faecium (GC 2243) (Enterococcus sp.; [1]): 8 µg/mL (≈ 5.46 µM)
- MIC Enterococcus faecium (GC 4556) (Enterococcus sp.; [1]): 8 µg/mL (≈ 5.46 µM)
- MIC Enterococcus faecium (GC 4557) (Enterococcus sp.; [1]): 4 µg/mL (≈ 2.73 µM)
- MIC Enterococcus faecalis (ATCC 29212) (Enterococcus sp.; strain ATCC 29212): 8 µg/mL (≈ 5.46 µM)
- MIC Enterococcus faecalis (GC 2242) (Enterococcus sp.; strain GC 2242): 4 µg/mL (≈ 2.73 µM)
- MIC Enterococcus faecium (GC 2243) (Enterococcus sp.; strain GC 2243): 8 µg/mL (≈ 5.46 µM)
- MIC Enterococcus faecalis (GC 2691) (Enterococcus sp.; strain GC 2691): 8 µg/mL (≈ 5.46 µM)
- MIC Enterococcus faecalis (GC 3059) (Enterococcus sp.; strain GC 3059): 8 µg/mL (≈ 5.46 µM)
- MIC Enterococcus faecalis (GC 4552) (Enterococcus sp.; strain GC 4552): 8 µg/mL (≈ 5.46 µM)
- MIC Enterococcus faecalis (GC 4553) (Enterococcus sp.; strain GC 4553): 8 µg/mL (≈ 5.46 µM)
- MIC Enterococcus faecalis (GC 4554) (Enterococcus sp.; strain GC 4554): 16 µg/mL (≈ 10.9 µM)
- MIC Enterococcus faecium (GC 4556) (Enterococcus sp.; strain GC 4556): 8 µg/mL (≈ 5.46 µM)
- MIC Enterococcus faecium (GC 4557) (Enterococcus sp.; strain GC 4557): 4 µg/mL (≈ 2.73 µM)
- MIC Enterococcus avium (GC 4558) (Enterococcus sp.; strain GC 4558): 8 µg/mL (≈ 5.46 µM)
- MIC Enterococcus faecalis (GC 6189) (Enterococcus sp.; strain GC 6189): 4 µg/mL (≈ 2.73 µM)
